Measured values taken from US9241943B2, “Oxathiazine derivatives as antibacterial and anticancer agents” (GEISTLICH PHARMA AG, priority 2012, dated 2016).
In brackets after ≈: the same amount, converted by molar mass.

Columns and labels:
[1] = tested on: cancers identified herein; assay: Administration to patients having cancers (Example 5); type: in vivo, human; conditions: Example 5, written in present tense
[2] = tested on: human glioma cell line LN-229; assay: Cytotoxicity assay (crystal violet) in LN-229 cells; type: cell-based
[3] = tested on: human glioma cell line LN-229; assay: as above; type: cell-based; conditions: 24 h, high values correspond to high cell viability
Method: Cell lines: The human glioma cell line LN-229 was used as described previously (Rodak et al. 2005) as well as the human colon adenocarcinoma cell line SW480.
Cytotoxicity assay: Dissociated LN-229 cells were seeded into 96-well plates at a density of 10^4 cells per well in 100 μl of culture medium. Approximately 24 h later, when the cells had reached 70-80% confluency, the medium was changed and treatment with compound #2250 (4.0-1000 μg/ml), taurolidine (4.0-1000 μg/ml) or standard medium was started. Triplicate cultures were prepared for each sample. After 24 h of incubation at […], the remaining adherent viable cells were stained using crystal violet as described (Rodack et al. 2005). Cell viability was determined by measuring the absorbancy at 540 nm. The results are expressed as killing rate given by the difference between 100% of cells and percentage of cells surviving. EC50 values correspond to the concentration inducing 50% cell death.

[4] = tested on: murine SMA560 glioma cancer stem cells (CSC); assay: Cytotoxicity assay in murine SMA560 glioma cancer stem cells; type: cell-based, mouse; conditions: for sensitivity of CSCs relative to corresponding glioma bulk cells, based on EC50: murine SMA 560 CSCs vs bulk cells
Method: (§1) Tissue samples from high grade gliomas WHO grade IV from newly diagnosed patients (medium age of 54±10 years) were minced mechanically, digested enzymatically and the dissociated cells were filtered. The isolated tumor cells were cultured as bulk cells. Cancer Stem Cells (CSCs) were isolated by the formation of neurospheres under neurosphere conditions (using neurobasal medium) from the murine SMA 560 glioma cell line or from freshly isolated human glioblastoma cells.
(§2) Bulk glioma tumor cells were cultured and incubated with taurolidine or taurultam for 24h or 48h as described previously (Rodak et al., J. Neurosurg. 102, 1055-1068, 2005). CSCs were cultured for 7 days and subsequently exposed to taurolidine, taurultam or temozolamide for 24 hours. The number of remaining adherent cells were stained (crystal violet or Alamar Blue) and quantified by absorbance measurements (540 nm). Cell survival was expressed as the percentage of cells surviving relative to the number of cells surviving in untreated control cultures. The results are given as % killing rate or EC50 as the dose required for half-maximal cytotoxicity.
Mouse CSCs were generated from the SMA560 glioma cell line and cultured for 7 days. The CSCs were treated with the same concentration of taurolidine and taurultam as above and cytotoxicity was determined after 24 hours.

[5] = tested on: human glioblastoma bulk cells; conditions: cited from earlier work
[6] = tested on: murine SMA 560 bulk glioma cells; assay: Cytotoxicity assay in murine SMA 560 bulk glioma cells; type: cell-based, mouse
Method: as §1
as §2, with “The results are given as % killing rate or EC50 as the dose required for half-maximal cytotoxicity.” left out
The mouse SMA560 glioma cell line was used to provide tumor bulk cells and CSCs. Following incubation of SMA560 bulk cells with various concentrations of taurolidine and taurultam (6.25, 12.5, 25, 50, 100, 200 μg/ml), cytotoxicity was determined after 24 h and 48 h of incubation.

[7] = tested on: cancer stem cells (CSC) derived from four glioblastoma patients; type: cell-based, human
Method: as §1, §2
CSCs were isolated from glioblastoma tissue resected from four patients. The same range of concentrations of taurolidine and taurultam was applied as above and the cytotoxicity was measured after 24 hours of incubation with drug. […]

[8] = measured in patients; cited from earlier work

For `O=S1(=O)CCNCO1` [A1], the “efficacy in treating cancers in patients” value [1] was “effective in treating such cancers”.

With `O=S1(=O)CCOCO1` [A3] the “efficacy in treating cancers in patients” value [1] was “effective in treating such cancers”.

With `O=S1(=O)CCN(CN2COCCS2(=O)=O)CN1` [B1] the “efficacy in treating cancers in patients” value [1] was “effective in treating such cancers”.

In the case of `O=S1(=O)CCN(CN2CCS(=O)(=O)OC2)CN1` [B2], the “efficacy in treating cancers in patients” value [1] is reported as “effective in treating such cancers”.

In the case of `O=S1(=O)CCN(CN2CCS(=O)(=O)OC2)CO1` [B3], the “efficacy in treating cancers in patients” value [1] is reported as “effective in treating such cancers”.

For `O=S1(=O)CCOCN1CN1COCCS1(=O)=O` [Compound 2245], the “efficacy in treating cancers in patients” value [1] was “effective in treating such cancers”.

With `O=S1(=O)CCOCN1` [Compound 2250, Tetrahydro1,4,5-oxathiazin-4-dioxid] the “effect on tumor cell morphology” value [2] was “causes blebbing of tumor cells”, the “OD (absorbance at 540 nm)” value ([3]; 4 μg/ml) was 1.477 and the “OD (absorbance at 540 nm)” value ([3]; 8 μg/ml) was 1.527. For the same molecule, the “OD (absorbance at 540 nm)” value ([3]; 15.5 μg/ml) was 1.482, the “OD (absorbance at 540 nm)” value ([3]; 31 μg/ml) was 1.482 and the “OD (absorbance at 540 nm)” value ([3]; 62.5 μg/ml) was 0.372. The “OD (absorbance at 540 nm)” value ([3]; 125 μg/ml) was 0.199, the “OD (absorbance at 540 nm)” value ([3]; 250 μg/ml) was 0.120 and the “OD (absorbance at 540 nm)” value ([3]; 500 μg/ml) was 0.141. The “OD (absorbance at 540 nm)” value ([3]; 1000 μg/ml) was 0.189 and the “efficacy in treating cancers in patients” value [1] was “effective in treating such cancers”.

For `CN1COCCS1(=O)=O` [Compound 2255], the “efficacy in treating cancers in patients” value [1] was “effective in treating such cancers”.

For `O=S1(=O)CCN(CN2CCS(=O)(=O)NC2)CN1` [Taurolidine, taurolidine], the “OD (absorbance at 540 nm)” value ([3]; 4 μg/ml) was 1.530, the “OD (absorbance at 540 nm)” value ([3]; 8 μg/ml) was 1.478 and the “OD (absorbance at 540 nm)” value ([3]; 15.5 μg/ml) was 1.434. The “OD (absorbance at 540 nm)” value ([3]; 31 μg/ml) was 1.132, the “OD (absorbance at 540 nm)” value ([3]; 62.5 μg/ml) was 0.317 and the “OD (absorbance at 540 nm)” value ([3]; 125 μg/ml) was 0.305. For the same molecule, the “OD (absorbance at 540 nm)” value ([3]; 250 μg/ml) was 0.165, the “OD (absorbance at 540 nm)” value ([3]; 500 μg/ml) was 0.098 and the “OD (absorbance at 540 nm)” value ([3]; 1000 μg/ml) was 0.109. For the same molecule, the “sensitivity of CSCs relative to corresponding glioma bulk cells, based on EC50” value [4] was “about 3 fold”, the EC50 cytotoxicity [5] was about 50 µg/mL (≈ 176 µM) and the EC50 ([6]; Mus musculus, SMA 560 bulk cells, no major difference between 24 h and 48 h) was 34.6 µg/mL (≈ 122 µM).

In the case of `O=S1(=O)CCNCN1` [Taurultam, taurultam], the EC50 cytotoxicity [4] is given as 10 µg/mL (≈ 73.4 µM), the “sensitivity of CSCs relative to corresponding glioma bulk cells, based on EC50” value [4] is given as about 2 fold and the EC50 cytotoxicity [5] is given as about 50 µg/mL (≈ 367 µM). For the same molecule, the EC50 cytotoxicity [6] was 19.3 µg/mL (≈ 142 µM).

In the case of `Cn1nnc2c(C(N)=O)ncn2c1=O` [Temozolamide, temozolamide], the “Cytotoxicity EC50 24 h, Mean ± SD” value [7] is given as 68.5 ± 26 µg/mL and the peak plasma levels [8] is given as 13.7 µg/mL.
